Experimental data as given in US7048926B2, “Methods of agonizing and antagonizing FabK” (priority 2000, dated 2006).
≈ marks a conversion by molar mass, not a printed value. Where two headings read alike, the source gives them in different places.

Columns and labels:
S. pneumoniae FabK = target: T1, S. pneumoniae FabK (Streptococcus pneumoniae, UniProt Q9FBC5, T318A); assay: FabK enoyl-ACP reductase assay (NADH oxidation at 340 nm); assay type: biochemical; conditions: for inhibition of FabK (in words): 25 uM crotonoyl ACP, 50 uM NADH, 1.25 nM enzyme
T1 construct: made in house
Description: FabK catalyses the reduction of enoyl-ACPs with the concommitant oxidation of NADH. Crotonoyl-ACP can be prepared as described below. The reduction of crotonoyl-ACP to butyryl-ACP can be monitored by following the change in absorbance at 340 nm as NADH is oxidised.
(§1) Assays were carried out in Costar 3696 half-area plates in a final assay volume of 150 ul on a Spectramax platereader. Substrates, NADH and crotonoyl ACP, were incubated with FabK enzyme in 100 mM N-[2-acetamido]-2 irminodiacetic acid (ADA), pH 6.5, 100 mM NH4Cl, 4% glycerol at 30° C. and the reaction monitored at 340 nm. This assaying can also be performed using crotonyl CoA, NADPH or an NADH analogue as a substrate.
(§2) Using the above assay, compounds can be tested for inhibition of FabK. 30 ul of a candidate compounds is added to a well of the plate. 30 ul of a 250 uM stock of NADH is then added to the well. 60 ul of a 67.5 uM stock of Crotonoyl ACP is added to the well. The plate is incubated at 30° C. for 5 min. 30 ul of a 6.25 nM stock of enzyme is then added to the well (also preincubated at 30° C.) to initiate the reaction. The plate is then monitored at A340 nm for 30 min at 30° C. Positive controls are reactions without compound. Negative controls are reactions without enzyme and without compound. Final concentrations in the assay mixture are 25 uM crotonoyl ACP, 50 uM NADH, 1.25 nM enzyme.

FabI = FabI assay, enzyme source not stated; assay type: biochemical
Description: (§3) FabI catalyses the reduction of enoyl-ACPs with the concommitant oxidation of NAD(P)H. Crotonoyl-ACP can be prepared as described in patent applications numbered PCT/US00/12104 and EP1997000306506. The reduction of enoyl-ACPs can be monitored by following the change in absorbance at 340 nm as NADH is oxidised. Enoyl ACPs (eg crotonoyl-ACP) can be replaced by enoyl-CoAs (eg crotonoyl-CoA)
as §1, with “FabI” for “FabK”, “iminodiacetic” for “irminodiacetic”, “6.5,” for “6.5, 100 mM NH4Cl,”, “substrate, or using a substrate suitable for FabK, such as those described above.” for “substrate.”
as §2, with “FabI.” for “FabK.”, “Negative controls are reactions without enzyme and without compound. Final concentrations in the assay mixture are 25 uM crotonoyl ACP, 50 uM NADH, 1.25 nM enzyme.” left out

S. aureus FabI = S. aureus FabI (Staphylococcus aureus, UniProt Q6GI75); assay: FabI assay, S. aureus enzyme; assay type: biochemical
Description: as §3
as §1, with “FabI” for “FabK”, “iminodiacetic” for “irminodiacetic”, “6.5,” for “6.5, 100 mM NH4Cl,”, “substrate, or using a substrate suitable for FabK, such as those described above.” for “substrate.”
as §2, with “FabI.” for “FabK.”, “Negative controls are reactions without enzyme and without compound. Final concentrations in the assay mixture are 25 uM crotonoyl ACP, 50 uM NADH, 1.25 nM enzyme.” left out

E. faecalis 7 = assay: Antibacterial MIC; assay type: cell-based
E. coli FabI = E. coli FabI (Escherichia coli, UniProt P0AEK4); assay: FabI assay, E. coli enzyme; assay type: biochemical
Description: as §3
as §1, with “FabI” for “FabK”, “iminodiacetic” for “irminodiacetic”, “6.5,” for “6.5, 100 mM NH4Cl,”, “substrate, or using a substrate suitable for FabK, such as those described above.” for “substrate.”
as §2, with “FabI.” for “FabK.”, “Negative controls are reactions without enzyme and without compound. Final concentrations in the assay mixture are 25 uM crotonoyl ACP, 50 uM NADH, 1.25 nM enzyme.” left out

E. coli AcrAB^− = assay: Antibacterial MIC; assay type: cell-based; conditions: Escherichia coli, read-out: Antibacterial MIC
S. aureus WCUH29 = assay: Antibacterial MIC; assay type: cell-based; conditions: Staphylococcus aureus
H. influenzae NEMC1 = assay: Antibacterial MIC; assay type: cell-based; conditions: Haemophilus influenzae
E. faecalis 1 = assay: Antibacterial MIC; assay type: cell-based; conditions: Enterococcus faecalis, 1, read-out: Antibacterial MIC
M. catarrhalis = assay: Antibacterial MIC; assay type: cell-based; conditions: Moraxella catarrhalis, read-out: Antibacterial MIC
S. pneumoniae 1629 = assay: Antibacterial MIC; assay type: cell-based
S. aureus Oxford = assay: Antibacterial MIC; assay type: cell-based; conditions: Staphylococcus aureus, read-out: Antibacterial MIC
S. pneumoniae N1387 = assay: Antibacterial MIC; assay type: cell-based; conditions: Streptococcus pneumoniae
S. pneumoniae ERY2 = assay: Antibacterial MIC; assay type: cell-based; conditions: Streptococcus pneumoniae, ERY2, read-out: Antibacterial MIC
H. influenzae Q1 = assay: Antibacterial MIC; assay type: cell-based; conditions: Haemophilus influenzae

T1 sequence (Q9FBC5 whole entry T318A): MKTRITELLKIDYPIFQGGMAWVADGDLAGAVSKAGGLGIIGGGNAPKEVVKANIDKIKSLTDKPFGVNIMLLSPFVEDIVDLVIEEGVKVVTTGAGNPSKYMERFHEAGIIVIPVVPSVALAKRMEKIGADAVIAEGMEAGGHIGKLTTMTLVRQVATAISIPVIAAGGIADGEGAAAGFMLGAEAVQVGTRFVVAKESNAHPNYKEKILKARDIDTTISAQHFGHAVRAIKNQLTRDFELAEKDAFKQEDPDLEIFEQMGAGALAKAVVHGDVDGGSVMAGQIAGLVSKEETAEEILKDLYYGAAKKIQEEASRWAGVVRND
Sequence of E. coli FabI (P0AEK4 whole entry): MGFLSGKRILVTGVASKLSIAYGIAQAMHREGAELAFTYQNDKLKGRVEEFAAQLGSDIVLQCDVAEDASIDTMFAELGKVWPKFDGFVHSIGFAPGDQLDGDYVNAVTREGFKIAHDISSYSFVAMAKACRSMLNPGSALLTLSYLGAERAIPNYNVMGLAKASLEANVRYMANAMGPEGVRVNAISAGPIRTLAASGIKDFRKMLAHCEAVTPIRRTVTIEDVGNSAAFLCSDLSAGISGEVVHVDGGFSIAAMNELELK
Sequence of S. aureus FabI (Q6GI75 whole entry): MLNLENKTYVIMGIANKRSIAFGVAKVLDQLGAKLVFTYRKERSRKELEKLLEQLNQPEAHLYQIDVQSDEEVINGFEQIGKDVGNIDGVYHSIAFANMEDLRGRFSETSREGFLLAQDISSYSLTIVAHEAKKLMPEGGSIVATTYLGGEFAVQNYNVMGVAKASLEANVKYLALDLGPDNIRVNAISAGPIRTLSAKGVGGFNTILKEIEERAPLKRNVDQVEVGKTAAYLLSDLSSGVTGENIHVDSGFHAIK

Cc1[nH]c2ccccc2c1CN(C)C(=O)/C=C/c1cnc2c(c1)CCC(=O)N2 [Formula II]
inhibition of FabK (in words) (S. pneumoniae FabK): inhibit | inhibition of FabI (in words) (FabI): inhibit

CN(Cc1cn(C)c2ccccc12)C(=O)/C=C/c1cnc2c(c1)CCC(=O)N2 [Formula I]
inhibition of FabK (in words) (S. pneumoniae FabK): inhibit | inhibition of FabI (in words) (FabI): inhibit

Cl.N [NH4^+]
activation of FabK reaction over the reaction with no monovalent cations (S. pneumoniae FabK; NH4^+ at 100 mM): about 300 fold

CN(Cc1cn(C)c2ccccc12)C(=O)/C=C/c1cnc2c(c1)CCC(=O)N2 [SB-611113]
IC50 (S. aureus FabI): 0.1 µM | MIC (E. faecalis 7; Enterococcus faecalis, 7, read-out: Antibacterial MIC): 16 µg/mL (≈ 42.7 µM) | IC50 (E. coli FabI): < 0.06 µM | MIC (E. coli AcrAB^−): 8 µg/mL (≈ 21.4 µM) | MIC (S. aureus WCUH29; WCUH29, read-out: Antibacterial MIC): ≤ 0.06 µg/mL | IC50 (S. pneumoniae FabK): 5.7 µM | MIC (H. influenzae NEMC1; NEMC1, read-out: Antibacterial MIC): 32 µg/mL (≈ 85.5 µM) | MIC (E. faecalis 1): 16 µg/mL (≈ 42.7 µM) | MIC (M. catarrhalis): ≤ 0.06 µg/mL | MIC (S. pneumoniae 1629; Streptococcus pneumoniae, 1629, read-out: Antibacterial MIC): 8 µg/mL (≈ 21.4 µM) | MIC (S. aureus Oxford): ≤ 0.06 µg/mL | MIC (S. pneumoniae N1387; N1387, read-out: Antibacterial MIC): 16 µg/mL (≈ 42.7 µM) | MIC (S. pneumoniae ERY2): 8 µg/mL (≈ 21.4 µM) | MIC (H. influenzae Q1; Q1, read-out: Antibacterial MIC): 16 µg/mL (≈ 42.7 µM)

Cc1[nH]c2ccccc2c1CN(C)C(=O)/C=C/c1cnc2c(c1)CCC(=O)N2 [SB-641197]
MIC (E. faecalis 7; Enterococcus faecalis, E. faecalis 7, read-out: Antibacterial MIC): 16 µg/mL (≈ 42.7 µM) | MIC (E. coli AcrAB^−): 0.5 µg/mL (≈ 1.34 µM) | MIC (S. aureus WCUH29; S. aureus WCUH29, read-out: Antibacterial MIC): ≤ 0.06 µg/mL | IC50 (S. pneumoniae FabK): 5.2 µM | MIC (H. influenzae NEMC1; H. influenzae NEMC1, read-out: Antibacterial MIC): 2 µg/mL (≈ 5.34 µM) | MIC (E. faecalis 1): 16 µg/mL (≈ 42.7 µM) | MIC (M. catarrhalis; M. catarrhalis): ≤ 0.06 µg/mL | MIC (S. pneumoniae 1629; Streptococcus pneumoniae, S. pneumoniae 1629, read-out: Antibacterial MIC): 8 µg/mL (≈ 21.4 µM) | MIC (S. aureus Oxford): ≤ 0.06 µg/mL | MIC (S. pneumoniae N1387; S. pneumoniae N1387, read-out: Antibacterial MIC): 16 µg/mL (≈ 42.7 µM) | MIC (S. pneumoniae ERY2): 8 µg/mL (≈ 21.4 µM) | MIC (H. influenzae Q1; H. influenzae Q1, read-out: Antibacterial MIC): 1 µg/mL (≈ 2.67 µM)
